Results: PubChem BioAssay AID248 (DTP/NCI, 2004)
Several values for one entry are separate records, joined by “and”; a condition that tells them apart may be missing. Equal entries are not always repeated. Inconclusive results and toxic doses are left out. Rule as the data show it: active = T/C of 150% or more; inactive = T/C below 125%.

Tested on: L1210 leukemia ip in BDF1 mice, survival T/C
Test: NCI In Vivo Anticancer Drug Screen. Data for tumor model L1210 Leukemia (intraperitoneal) in B6D2F1 (BDF1) mice
Details: endpoint: mean survival time, higher = longer survival
Method in brief: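 Transplantable tumor model; survival measured in treated vs vehicle control mice. Value = treated/control.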

[1] = dose: 100.0 mg/kg/injection, schedule: Q04DX003 (ip), vehicle: saline with Tween-80
[2] = dose: 200.0 mg/kg/injection, schedule: Q04DX003 (ip), vehicle: saline with Tween-80
[3] = dose: 12.5 mg/kg/injection, schedule: Q01DX009 (ip), vehicle: saline with Tween-80
[4] = dose: 25.0 mg/kg/injection, schedule: Q01DX009 (ip), vehicle: saline with Tween-80
[5] = dose: 50.0 mg/kg/injection, schedule: Q01DX009 (ip), vehicle: saline with Tween-80
[6] = dose: 50.0 mg/kg/injection, schedule: Q01DX001 (ip), vehicle: saline
[7] = dose: 100.0 mg/kg/injection, schedule: Q01DX001 (ip), vehicle: saline
[8] = dose: 100.0 mg/kg/injection, schedule: Q04DX003 (ip), vehicle: Klucel (hydroxypropylcellulose) (HPC)
[9] = dose: 200.0 mg/kg/injection, schedule: Q01DX001 (ip), vehicle: saline
[10] = dose: 200.0 mg/kg/injection, schedule: Q04DX003 (ip), vehicle: Klucel (hydroxypropylcellulose) (HPC)
[11] = dose: 400.0 mg/kg/injection, schedule: Q01DX001 (ip), vehicle: saline
[12] = dose: 400.0 mg/kg/injection, schedule: Q04DX003 (ip), vehicle: Klucel (hydroxypropylcellulose) (HPC)
[13] = dose: 400.0 mg/kg/injection, schedule: Q04DX003 (ip), vehicle: saline with Tween-80
[14] = dose: 100.0 mg/kg/injection, schedule: Q04DX003 (ip), vehicle: saline
[15] = dose: 200.0 mg/kg/injection, schedule: Q04DX003 (ip), vehicle: saline
[16] = dose: 100.0 mg/kg/injection, schedule: Q01DX009 (ip), vehicle: Klucel (hydroxypropylcellulose) (HPC)
[17] = dose: 100.0 mg/kg/injection, schedule: Q04DX002 (ip), vehicle: Klucel (hydroxypropylcellulose) (HPC)
[18] = dose: 200.0 mg/kg/injection, schedule: Q01DX009 (ip), vehicle: Klucel (hydroxypropylcellulose) (HPC)
[19] = dose: 200.0 mg/kg/injection, schedule: Q04DX002 (ip), vehicle: Klucel (hydroxypropylcellulose) (HPC)
[20] = dose: 400.0 mg/kg/injection, schedule: Q01DX009 (ip), vehicle: Klucel (hydroxypropylcellulose) (HPC)
[21] = dose: 400.0 mg/kg/injection, schedule: Q04DX002 (ip), vehicle: Klucel (hydroxypropylcellulose) (HPC)
[22] = dose: 100.0 mg/kg/injection, schedule: Q01DX001 (ip), vehicle: Klucel (hydroxypropylcellulose) (HPC)

Measured: T/C

Oc1c(Br)cc(Br)cc1C=Nc1ccc(I)cc1.Oc1c(Br)cc(Br)cc1C=Nc1ccc(I)cc1.[Co]
inactive: [1] 98 % of control | [2] 92 % of control

Cn1c2nc(=O)n(-c3ccccc3)c(=O)c-2nc2c1CCCC2
inactive: dose: 6.25 mg/kg/injection, schedule: Q01DX009 (ip), vehicle: saline with Tween-80 110 % of control | [3] 106 % of control | [4] 101 % of control | [5] 103 % of control | dose: 100.0 mg/kg/injection, schedule: Q01DX009 (ip), vehicle: saline with Tween-80 105 % of control | dose: 200.0 mg/kg/injection, schedule: Q01DX009 (ip), vehicle: saline with Tween-80 100 % of control

c1ccc(-c2cc3ccncc3c3ccccc23)cc1
inactive: dose: 100.0 mg/kg/injection, schedule: Q04DX003 (ip), vehicle: water 102 % of control | dose: 200.0 mg/kg/injection, schedule: Q04DX003 (ip), vehicle: water 96 % of control | dose: 400.0 mg/kg/injection, schedule: Q04DX003 (ip), vehicle: water 96 % of control

O=C(CCc1ccccc1)Nc1ccccc1
inactive: [6] 96 % of control | [7] 106 % of control | [8] 97 % of control | [9] 101 % of control | [10] 102 % of control | [11] 102 % of control | [12] 89 % of control

CCCCCCCOC(C[N+](=O)[O-])C(Cl)(Cl)Cl (stereo not drawn)
inactive: dose: 25.0 mg/kg/injection, schedule: Q01DX009 (ip), vehicle: acetone 95 % of control | dose: 50.0 mg/kg/injection, schedule: Q01DX009 (ip), vehicle: acetone 93 % of control | dose: 100.0 mg/kg/injection, schedule: Q04DX003 (ip), vehicle: acetone 99 % of control

COC(=O)/C=C/Sc1ccccc1C(=O)OC
inactive: dose: 50.0 mg/kg/injection, schedule: Q04DX003 (ip), vehicle: other 104 % of control | dose: 100.0 mg/kg/injection, schedule: Q04DX003 (ip), vehicle: other 87 % of control | dose: 200.0 mg/kg/injection, schedule: Q04DX003 (ip), vehicle: other 95 % of control

CCCC(C)C(=O)Nc1cccc(OC(=O)N(C)C)c1 (stereo not drawn)
inactive: [1] 95 % of control | [2] 96 % of control | [13] 93 % of control

O=S([O-])c1ccc(Cl)cc1.O=S([O-])c1ccc(Cl)cc1.[Zn+2]
inactive: dose: 75.0 mg/kg/injection, schedule: Q01DX001 (ip), vehicle: saline 101 % of control | dose: 150.0 mg/kg/injection, schedule: Q01DX001 (ip), vehicle: saline 101 % of control | dose: 300.0 mg/kg/injection, schedule: Q01DX001 (ip), vehicle: saline 110 % of control

C=COCCN(C)C
inactive: dose: 50.0 mg/kg/injection, schedule: Q01DX009 (ip), vehicle: saline 90 % of control | dose: 100.0 mg/kg/injection, schedule: Q01DX009 (ip), vehicle: saline 93 % of control | [14] 105 % of control | dose: 200.0 mg/kg/injection, schedule: Q01DX009 (ip), vehicle: saline 93 % of control | [15] 89 % of control

Nc1ncnc(N)c1NC(=O)c1cccc(C(=O)c2ccccc2)c1
inactive: [14] 101 % of control | [15] 100 % of control | dose: 400.0 mg/kg/injection, schedule: Q04DX003 (ip), vehicle: saline 96 % of control

CC(=O)OCC1OCOC2C(C(N)=O)OCOC12 (stereo not drawn)
inactive: [7] 103 % of control | [9] 103 % of control

O=C1NCC(c2ccccc2)(c2ccccc2)C(=O)N1
inactive: dose: 50.0 mg/kg/injection, schedule: Q01DX001 (ip), vehicle: carboxymethylcellulose (CMC) 94 % of control | dose: 100.0 mg/kg/injection, schedule: Q01DX001 (ip), vehicle: carboxymethylcellulose (CMC) 94 % of control | dose: 200.0 mg/kg/injection, schedule: Q01DX001 (ip), vehicle: carboxymethylcellulose (CMC) 91 % of control | dose: 400.0 mg/kg/injection, schedule: Q01DX001 (ip), vehicle: carboxymethylcellulose (CMC) 86 % of control

CC(=O)c1ccc(NC(=O)c2ccc(C(=O)Nc3ccc(C(C)=O)cc3)cc2)cc1
inactive: [7] 100 % of control | [9] 96 % of control | [11] 102 % of control

O=[N+]([O-])c1ccc(C(Cl)S(=O)(=O)c2ccccc2)cc1 (stereo not drawn)
inactive: [6] 100 % of control | dose: 50.0 mg/kg/injection, schedule: Q01DX009 (ip), vehicle: Klucel (hydroxypropylcellulose) (HPC) 103 % of control | dose: 50.0 mg/kg/injection, schedule: Q04DX003 (ip), vehicle: Klucel (hydroxypropylcellulose) (HPC) 99 % of control | [7] 108 % of control | [16] 92 % of control | [17] 93 % of control and 100 % of control | [8] 111 % of control | dose: 119.0 mg/kg/injection, schedule: Q01DX001 (ip), vehicle: Klucel (hydroxypropylcellulose) (HPC) 105 % of control | dose: 178.0 mg/kg/injection, schedule: Q01DX001 (ip), vehicle: Klucel (hydroxypropylcellulose) (HPC) 100 % of control | [9] 97 % of control | [18] 97 % of control | [19] 100 % of control | [10] 107 % of control | dose: 266.0 mg/kg/injection, schedule: Q01DX001 (ip), vehicle: Klucel (hydroxypropylcellulose) (HPC) 100 % of control | dose: 400.0 mg/kg/injection, schedule: Q01DX001 (ip), vehicle: Klucel (hydroxypropylcellulose) (HPC) 97 % of control | [11] 95 % of control | [20] 92 % of control | [12] 101 % of control | dose: 600.0 mg/kg/injection, schedule: Q01DX001 (ip), vehicle: Klucel (hydroxypropylcellulose) (HPC) 94 % of control | dose: 600.0 mg/kg/injection, schedule: Q04DX002 (ip), vehicle: Klucel (hydroxypropylcellulose) (HPC) 100 % of control

NC(=O)Nc1ccc(Br)cc1Br
inactive: [17] 102 % of control | [19] 94 % of control

CNC(=O)Oc1ccc(C=Nc2cccc(Cl)c2)cc1
inactive: [17] 98 % of control | [19] 98 % of control | [21] 98 % of control

COc1cc2c(cc1NC1=NCCO1)OCO2
inactive: dose: 75.0 mg/kg/injection, schedule: Q04DX003 (ip), vehicle: Klucel (hydroxypropylcellulose) (HPC) 101 % of control | dose: 150.0 mg/kg/injection, schedule: Q04DX003 (ip), vehicle: Klucel (hydroxypropylcellulose) (HPC) 93 % of control | dose: 300.0 mg/kg/injection, schedule: Q04DX003 (ip), vehicle: Klucel (hydroxypropylcellulose) (HPC) 103 % of control

Cc1cc([N+](=O)[O-])ccc1N=O
inactive: [3] 101 % of control | [4] 102 % of control | [5] 98 % of control | [1] 98 % of control | [2] 100 % of control | [13] 100 % of control

Oc1cc(O)c(CN2CCOCC2)c(O)c1CN1CCOCC1
inactive: dose: 100.0 mg/kg/injection, schedule: Q01DX001 (ip), vehicle: other 98 % of control | dose: 200.0 mg/kg/injection, schedule: Q01DX001 (ip), vehicle: other 100 % of control | dose: 400.0 mg/kg/injection, schedule: Q01DX001 (ip), vehicle: other 95 % of control

CCn1c2ccccc2c2cc(/C=C\[N+](=O)[O-])ccc21
inactive: [17] 91 % of control | [19] 94 % of control | [21] 97 % of control

CCCCCC#CC(=O)O
inactive: [16] 105 % of control | [8] 98 % of control | [18] 106 % of control | [10] 98 % of control | [20] 90 % of control | [12] 109 % of control

c1ccc2c(C3OCC4(CC4)CO3)cccc2c1
inactive: dose: 25.0 mg/kg/injection, schedule: Q01DX001 (ip), vehicle: Klucel (hydroxypropylcellulose) (HPC) 100 % of control | dose: 50.0 mg/kg/injection, schedule: Q01DX001 (ip), vehicle: Klucel (hydroxypropylcellulose) (HPC) 96 % of control | [22] 105 % of control

CC(=O)N(C)c1ccc(S(=O)(=O)F)cc1
inactive: [22] 103 % of control | dose: 200.0 mg/kg/injection, schedule: Q01DX001 (ip), vehicle: Klucel (hydroxypropylcellulose) (HPC) 103 % of control
